Experimental data: the supplement of paper PMC10307832

What was measured:
Assay in all cases: relative viability (nuclei count vs DMSO), 5 days (fraction); higher = more cells survive
CUDC-101 + Dasatinib = compound: C#Cc1cccc(Nc2ncnc3cc(OC)c(OCCCCCCC(=O)NO)cc23)c1 [CUDC-101] + Cc1nc(Nc2ncc(C(=O)Nc3c(C)cccc3Cl)s2)cc(N2CCN(CCO)CC2)n1 [Dasatinib] (partner 0.075 µM)
Method in brief: (§1)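 Values are medians from duplicate plates. Each reflects relative viability, defined as the nuclei count of treated wells over that of vehicle wells. Lung cancer cell lines in 1536-well plates were pin-tool dosed one day after seeding with one drug alone or with a fixed anchor-drug dose plus five library-drug doses (not always all listed) in √10 steps, then fixed, stained and imaged at 4× after 5 days.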

CUDC-101 + Crizotinib = compound: C#Cc1cccc(Nc2ncnc3cc(OC)c(OCCCCCCC(=O)NO)cc23)c1 [CUDC-101] + C[C@@H](Oc1cc(-c2cnn(C3CCNCC3)c2)cnc1N)c1c(Cl)ccc(F)c1Cl [Crizotinib] (partner 1 µM)
Method in brief: as §1

CUDC-101 + Alpelisib = compound: C#Cc1cccc(Nc2ncnc3cc(OC)c(OCCCCCCC(=O)NO)cc23)c1 [CUDC-101] + Cc1nc(NC(=O)N2CCC[C@H]2C(N)=O)sc1-c1ccnc(C(C)(C)C(F)(F)F)c1 [Alpelisib] (partner 2 µM)
Method in brief: as §1

Vandetanib + Pictilisib = compound: COc1cc2/c(=N/c3ccc(Br)cc3F)nc[nH]c2cc1OCC1CCN(C)CC1 [Vandetanib] + CS(=O)(=O)N1CCN(Cc2cc3nc(-c4cccc5[nH]ncc45)nc(N4CCOCC4)c3s2)CC1 [Pictilisib] (partner 1 µM)
Method in brief: as §1

Row | Cell Line | relative viability (CUDC-101 + Dasatinib; first compound 0.01 µM) | relative viability (CUDC-101 + Dasatinib; first compound 0.03162 µM) | relative viability (CUDC-101 + Dasatinib; first compound 0.1 µM) | relative viability (CUDC-101 + Dasatinib; first compound 0.3162 µM) | relative viability (CUDC-101 + Dasatinib; first compound 1 µM) | relative viability (CUDC-101 + Crizotinib; first compound 0.01 µM) | relative viability (CUDC-101 + Crizotinib; first compound 0.03162 µM) | relative viability (CUDC-101 + Crizotinib; first compound 0.1 µM) | relative viability (CUDC-101 + Crizotinib; first compound 0.3162 µM) | relative viability (CUDC-101 + Crizotinib; first compound 1 µM) | relative viability (CUDC-101 + Alpelisib; first compound 0.01 µM) | relative viability (CUDC-101 + Alpelisib; first compound 0.03162 µM) | relative viability (CUDC-101 + Alpelisib; first compound 0.1 µM) | relative viability (CUDC-101 + Alpelisib; first compound 0.3162 µM) | relative viability (CUDC-101 + Alpelisib; first compound 1 µM) | relative viability (Vandetanib + Pictilisib; first compound 0.02 µM) | relative viability (Vandetanib + Pictilisib; first compound 0.06325 µM) | relative viability (Vandetanib + Pictilisib; first compound 0.2 µM) | relative viability (Vandetanib + Pictilisib; first compound 0.6325 µM) | relative viability (Vandetanib + Pictilisib; first compound 2 µM)
1 | NCI-H2085 | 0.205 | 0.274 | 0.221 | 0.196 | 0.215 | 0.865 | 0.861 | 0.772 | 0.779 | 0.682 | 0.957 | 1.01 | 0.925 | 1.01 | 0.868 | 0.428 | 0.421 | 0.398 | 0.363 | 0.513
2 | NCI-H2087 | 0.795 | 0.946 | 0.841 | 0.971 | 0.718 | 0.798 | 0.959 | 0.804 | 0.855 | 0.642 | 1.02 | 1.02 | 0.979 | 1.05 | 0.783 | 1 | 0.694 | 0.922 | 0.935 | 0.964
3 | NCI-H2126 | 0.7 | 0.588 | 0.612 | 0.579 | 0.481 | 1.07 | 1.08 | 1.01 | 1.01 | 0.866 | 0.771 | 0.706 | 0.7 | 0.74 | 0.531 | 0.461 | 0.46 | 0.468 | 0.418 | 0.481
4 | NCI-H2170 | 0.633 | 0.512 | 0.583 | 0.475 | 0.363 | 1.14 | 1.23 | 1.17 | 1.2 | 0.732 | 0.88 | 0.744 | 0.724 | 0.658 | 0.47 | 0.328 | 0.288 | 0.267 | 0.28 | 0.31
5 | NCI-H2228 | 0.542 | 0.543 | 0.536 | 0.52 | 0.4 | 0.46 | 0.551 | 0.492 | 0.411 | 0.318 | 0.795 | 0.802 | 0.625 | 0.563 | 0.491 | 0.383 | 0.402 | – | 0.399 | 0.297
6 | NCI-H2347 | 0.308 | 0.323 | 0.261 | 0.337 | 0.346 | 0.749 | 0.68 | 0.714 | 0.673 | 0.721 | 1.09 | 1.08 | 1.09 | 1.11 | 1.03 | 0.849 | 0.601 | 0.571 | 0.462 | 0.788
7 | NCI-H2405 | 0.217 | 0.193 | 0.228 | 0.214 | 0.191 | 0.809 | 0.788 | 0.843 | 0.924 | 0.765 | 0.952 | 0.574 | 0.87 | 1.22 | 0.603 | 0.535 | 0.264 | 0.44 | 0.45 | 0.222
8 | NCI-H3122 | 0.82 | 0.867 | 0.798 | 0.783 | 0.454 | 0.265 | 0.282 | 0.271 | 0.317 | 0.265 | 0.666 | 0.83 | 0.808 | 0.875 | 0.969 | 0.668 | 0.603 | 0.58 | 0.61 | 0.601
9 | PC-3 [JPC-3] | 0.954 | 0.932 | 0.753 | 0.483 | 0.542 | 0.983 | 0.97 | 0.82 | 0.82 | 0.278 | 1.04 | 0.999 | 0.775 | 0.683 | 0.307 | 0.725 | 0.709 | 0.622 | 0.423 | 0.359
10 | PC-14 | 0.292 | 0.232 | 0.0804 | 0.0597 | 0.0289 | 0.935 | 0.825 | 0.848 | 0.76 | 0.301 | 0.983 | 0.894 | 0.62 | 0.673 | 0.287 | 0.676 | 0.594 | 0.35 | 0.0812 | 0.0658
11 | RERF-LC-KJ | 0.793 | 0.891 | 0.765 | 0.793 | 0.421 | 0.771 | 0.903 | 0.788 | 0.825 | 0.686 | 0.795 | 0.835 | 0.828 | 0.835 | 0.742 | 0.583 | 0.543 | 0.577 | 0.448 | 0.394
12 | SK-LU-1 | 0.189 | 0.219 | 0.177 | 0.207 | 0.196 | 1.13 | 1.03 | 0.795 | 0.77 | 0.579 | 1.18 | 1.05 | 1.11 | 0.812 | 0.505 | 0.657 | 0.43 | 0.509 | 0.663 | 0.532
13 | SK-MES-1 | 0.333 | 0.394 | 0.367 | 0.417 | 0.207 | 1.06 | 1 | 1.02 | 1.04 | 0.945 | 0.798 | 0.877 | 0.879 | 0.874 | 0.592 | 0.379 | 0.294 | 0.319 | 0.259 | 0.22
14 | SW 1573 | 0.62 | 0.764 | 0.517 | 0.498 | 0.358 | 0.805 | 0.804 | 0.927 | 1.09 | 0.423 | 0.861 | 0.797 | 0.852 | 1.08 | 0.739 | 0.545 | 0.534 | 0.552 | 0.436 | 0.407
